Consider 19 molecules from US9227971B2, “Pyrazolo[1,5-a]pyrimidine compounds as mTOR inhibitors” (Merck Sharp & Dohme Corp., priority 2010, dated 2016).

pIC50: −log10 of the molar value. Where two headings read alike, the source gives them in different places.

Assay [1] has as its system phosphorylated AKT Ser473 (pAKT S473), mTORC2 activity, PC3 cells. In words: mTOR target engagement assay, immunofluorescent cell-based, pAKT S473 readout (mTORC2 activity). The gist of the method:
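After blocking, cells were stained overnight at 4 °C with anti-pAKT S473 antibody, then a fluorescent secondary; inhibition was read as reduced fluorescence intensity.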

Assay [2] has as its system phosphorylated 4E-BP1 Thr37/46 (p4E-BP1 Thr37/46), mTORC1 activity, PC3 cells. Put plainly: mTOR target engagement assay, immunofluorescent cell-based, p4E-BP1 Thr37/46 readout (mTORC1 activity). The conditions noted are these: read-out: p4E-BP1 Thr37/46 IC50. The gist of the method:
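Cell-based immunofluorescence in PC3 cells: serially diluted compounds (0.25% DMSO, 5% FBS) applied for ninety minutes at 37° C before fixation and overnight 4° C staining of p4E-BP1 Thr37/46. Untreated DMSO wells set maximal phosphorylation; IC50 obtained by logistic fitting.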

[3] abbreviates: Homo sapiens, PC-3, PC3 cells, compound treatment ninety minutes at 37° C.
Where [4] appears, read: Homo sapiens, PC-3, Table 3-1, PC3 cells.
[5] abbreviates: PC3 cells, compound treatment ninety minutes at 37° C.
Setting [6] is: Homo sapiens, PC-3, Table 6-1, PC3 cells.

Regarding `CC(=O)c1c([C@@H]2C[C@H]3CC[C@@H](C2)N3C(N)=O)nc2c(-c3ccc(-c4ccc(F)cc4F)nc3)cnn2c1N` [Compound 1.1.169, (1R,3s,5S)-3-(6-acetyl-7-amino-3-(6-(2,4-difluorophenyl)pyridin-3-yl)pyrazolo[1,5-a]pyrimidin-5-yl)-8-azabicyclo[3.2.1]octane-8-carboxamide], the pIC50 in assay [1] (setting [3]) and in assay [2] (setting [3]) was 7.00 to 9.00 throughout.

For the molecule `CNC(=O)c1ccc(-c2cnn3c(N)c(C(C)=O)c([C@@H]4C[C@H]5CC[C@@H](C4)N5C(=O)c4nc[nH]n4)nc23)cn1` [Compound 1.1.28, 5-(5-((1R,3s,5S)-8-(1H-1,2,4-triazole-3-carbonyl)-8-azabicyclo[3.2.1]octan-3-yl)-6-acetyl-7-aminopyrazolo[1,5-a]pyrimidin-3-yl)-N-methylpicolinamide], the pIC50 in assay [1] (setting [3]) and in assay [2] (setting [3]) was 5.00 to 6.00 in each case.

Take `Nc1c(C2CC2)c([C@@]2(O)C[C@H]3CC[C@@H](C2)N3C(=O)c2nnc[nH]2)nc2c(-c3ccc(-c4ccccc4)nc3)cnn12` [Compound 8.25, ((1R,3s,5S)-3-(7-amino-6-cyclopropyl-3-(6-phenylpyridin-3-yl)pyrazolo[1,5-a]pyrimidin-5-yl)-3-hydroxy-8-azabicyclo[3.2.1]octan-8-yl)(4H-1,2,4-triazol-3-yl)methanone]: the pIC50 in assay [1] (Homo sapiens, PC-3, PC3 cells) is 6.00 to 7.00; in assay [2] (Homo sapiens, PC-3, PC3 cells) it was 5.00 to 6.00.

With `CC(=O)c1c([C@@H]2C[C@H]3CC[C@@H](C2)N3C(=O)C2CCS(=O)(=O)N2)nc2c(-c3ccc(-c4ccccc4)nc3)cnn2c1N` (mixture of isomers) [Compound 1.1.4, (EXO)-3-[6-ACETYL-7-AMINO-3-(6-PHENYL-3-PYRIDINYL)PYRAZOLO[1,5-a]PYRIMIDIN-5-YL]-8-[(1,1-DIOXIDO-3-ISOTHIAZOLIDINYL)CARBONYL]-8-AZABICYCLO[3.2.1]OCTANE (MIX. OF 2 DIASTEREOMERS)], the pIC50 in assay [1] (setting [3]) and in assay [2] (setting [3]) was 6.00 to 7.00 each time.

Consider `Cc1cc(C(=O)N2[C@@H]3CC[C@H]2C[C@H](c2nc4c(-c5ccc(-c6ccccc6)nc5)ccn4c(N)c2S(C)(=O)=O)C3)[nH]n1` [Compound 3.81, ((1R,3s,5S)-3-(7-amino-6-(methyslulfonyl)-3-(6-phenylpyridin-3-yl)pyrazolo[1,5-a]pyrimidin-5-yl)-8-azabicyclo[3.2.1]octan-8-yl)(3-methyl-1H-pyrazol-5-yl)methanone], for which the pIC50 in assay [1] (setting [4]) and in assay [2] (setting [4]) was 6.00 to 7.00 in each case.

For the molecule `CS(=O)(=O)c1c([C@@H]2C[C@H]3CC[C@@H](C2)N3C(=O)c2cc(CO)n[nH]2)nc2c(-c3ccc(-c4ccccc4)nc3)cnn2c1N` [Compound 3.84, ((1R,3s,5S)-3-(7-amino-6-(methylsulfonyl)-3-(6-phenylpyridin-3-yl)pyrazolo[1,5-a]pyrimidin-5-yl)-8-azabicyclo[3.2.1]octan-8-yl)(3-(hydroxymethyl)-1H-pyrazol-5-yl)methanone], the values for the pIC50 in assay [1] (setting [4]) and in assay [2] (setting [4]) were 7.00 to 9.00 and 6.00 to 7.00, respectively.

With `CC(=O)c1c([C@@H]2C[C@H]3CC[C@@H](C2)N3C(=O)c2nnc[nH]2)nc2c(-c3cnn(C)c3)cnn2c1N` [Compound 1.1.151, 1-(5-((1R,3s,5S)-8-(4H-1,2,4-triazole-3-carbonyl)-8-azabicyclo[3.2.1]octan-3-yl)-7-amino-3-(1-methyl-1H-pyrazol-4-yl)pyrazolo[1,5-a]pyrimidin-6-yl)ethanone], the pIC50 in assay [1] (setting [3]) and in assay [2] (setting [3]) was 6.00 to 7.00 throughout.

Take `CS(=O)(=O)c1c([C@@H]2C[C@H]3CC[C@@H](C2)N3C(=O)[C@H](O)CO)nc2c(-c3ccc(-c4ccccc4)nc3)cnn2c1N` [Compound 3.7, (R)-1-((1R,3S,5S)-3-(7-amino-6-(methylsulfonyl)-3-(6-phenylpyridin-3-yl)pyrazolo[1,5-a]pyrimidin-5-yl)-8-azabicyclo[3.2.1]octan-8-yl)-2,3-dihydroxypropan-1-one]: the pIC50 in assay [1] (setting [4]) is 6.00 to 7.00; in assay [2] (setting [4]), 5.00 to 6.00.

In the case of `CC(=O)c1c([C@@H]2C[C@H]3CC[C@@H](C2)N3C(=O)c2nnc(N)[nH]2)nc2c(-c3ccc(C(O)(C(F)(F)F)C(F)(F)F)nc3)cnn2c1N` [Compound 7.78, 1-(7-amino-5-((1R,3s,5S)-8-(5-amino-4H-1,2,4-triazole-3-carbonyl)-8-azabicyclo[3.2.1]octan-3-yl)-3-(6-(1,1,1,3,3,3-hexafluoro-2-hydroxypropan-2-yl)pyridin-3-yl)pyrazolo[1,5-a]pyrimidin-6-yl)ethanone], the pIC50 is 6.00 to 7.00 in assay [1] (Homo sapiens, PC-3, PC3 cells) and 6.00 to 7.00 in assay [2] (Homo sapiens, PC-3, PC3 cells).

For the molecule `CC(=O)c1c([C@@H]2C[C@H]3CC[C@@H](C2)N3C(=O)CO)nc2c(-c3ccc(-n4cc(C)cn4)nc3)cnn2c1N` [Compound 1.1.134, 1-((1R,3s,5S)-3-(6-acetyl-7-amino-3-(6-(4-methyl-1H-pyrazol-1-yl)pyridin-3-yl)pyrazolo[1,5-a]pyrimidin-5-yl)-8-azabicyclo[3.2.1]octan-8-yl)-2-hydroxyethanone], the pIC50 in assay [1] (setting [3]) is 7.00 to 9.00; in assay [2] (setting [3]), 6.00 to 7.00.

“(1R,3s,5S)-2-methoxyethyl 3-(6-acetyl-7-amino-3-(6-(1-methyl-1H-pyrazol-3-yl)pyridin-3-yl)pyrazolo[1,5-a]pyrimidin-5-yl)-8-azabicyclo[3.2.1]octane-8-carboxylate [Compound 1.1.109]”: the pIC50 in assay [1] (setting [5]) and in assay [2] (setting [5]) was 5.00 to 6.00 each time.

As to `COCc1c([C@@H]2C[C@H]3CC[C@@H](C2)N3C(=O)c2nnc[nH]2)nc2c(-c3ccc(-c4ccc(OC)cc4)nc3)cnn2c1N` [Compound 5.6, ((1R,3s,5S)-3-(7-amino-6-(methoxymethyl)-3-(6-(4-methoxyphenyl)pyridin-3-yl)pyrazolo[1,5-a]pyrimidin-5-yl)-8-azabicyclo[3.2.1]octan-8-yl)(4H-1,2,4-triazol-3-yl)methanone], the pIC50 in assay [1] (setting [3]) and in assay [2] (setting [3]) was 7.00 to 9.00 each time.

Regarding `CS(=O)(=O)c1c([C@@H]2C[C@H]3CC[C@@H](C2)N3C(=O)c2cc(N)n[nH]2)nc2c(-c3ccc(-c4ccccc4)nc3)cnn2c1N` [Compound 3.75, (3-amino-1H-pyrazol-5-yl)((1R,3s,5S)-3-(7-amino-6-(methylsulfonyl)-3-(6-phenylpyridin-3-yl)pyrazolo[1,5-a]pyrimidin-5-yl)-8-azabicyclo[3.2.1]octan-8-yl)methanone], the pIC50 in assay [1] (setting [4]) and in assay [2] (setting [4]) was 7.00 to 9.00 in each case.

With `NC(=O)c1c([C@@H]2C[C@H]3CC[C@@H](C2)N3C(=O)c2nc[nH]n2)nc2c(-c3ccc(-c4ccccc4)nc3)cnn2c1N` [Compound 1.1.25, 5-((1R,3s,5S)-8-(1H-1,2,4-triazole-3-carbonyl)-8-azabicyclo[3.2.1]octan-3-yl)-7-amino-3-(6-phenylpyridin-3-yl)pyrazolo[1,5-a]pyrimidine-6-carboxamide], the pIC50 in assay [1] (setting [3]) and in assay [2] (setting [3]) was 7.00 to 9.00 in each case.

Regarding `CS(=O)(=O)c1c(C2CC3COCC(C2)N3C(=O)C2(O)CC2)nc2c(-c3ccc(-c4ccccc4)nc3)cnn2c1N` (single isomer, unassigned) [Compound 8.32, (7-(7-amino-6-(methylsulfonyl)-3-(6-phenylpyridin-3-yl)pyrazolo[1,5-a]pyrimidin-5-yl)-3-oxa-9-azabicyclo[3.3.1]nonan-9-yl)(1-hydroxycyclopropyl)methanone], the pIC50 was 7.00 to 9.00 in assay [1] (Homo sapiens, PC-3, PC3 cells) and 6.00 to 7.00 in assay [2] (Homo sapiens, PC-3, PC3 cells).

Regarding `COc1ccc(-c2ccc(-c3cnn4c(N)c(C(C)=O)c([C@@H]5C[C@H]6CC[C@@H](C5)N6C(=O)c5nnc[nH]5)nc34)cn2)c(F)c1F` [Compound 1.1.65, 1-(5-((1R,3s,5S)-8-(4H-1,2,4-triazole-3-carbonyl)-8-azabicyclo[3.2.1]octan-3-yl)-7-amino-3-(6-(2,3-difluoro-4-methoxyphenyl)pyridin-3-yl)pyrazolo[1,5-a]pyrimidin-6-yl)ethanone], the pIC50 in assay [1] (setting [3]) and in assay [2] (setting [3]) was 7.00 to 9.00 in each case.

`Nc1c(C2CC2)c([C@@H]2C[C@H]3CC[C@@H](C2)N3C(=O)c2nnc[nH]2)nc2c(-c3ccc(-c4ncc[nH]4)c(F)c3)cnn12` [Compound 6.36, ((1R,3s,5S)-3-(7-amino-6-cyclopropyl-3-(3-fluoro-4-(1H-imidazol-2-yl)phenyl)pyrazolo[1,5-a]pyrimidin-5-yl)-8-azabicyclo[3.2.1]octan-8-yl)(4H-1,2,4-triazol-3-yl)methanone]: the pIC50 in assay [1] (setting [6]) and in assay [2] (setting [6]) was 7.00 to 9.00 each time.

With `Cc1cnc(-c2ccc(-c3cnn4c(N)c(C5CC5)c([C@@H]5C[C@H]6CC[C@@H](C5)N6C(=O)CO)nc34)cn2)[nH]1` [Compound 6.27, 1-((1R,3s,5S)-3-(7-amino-6-cyclopropyl-3-(6-(5-methyl-1H-imidazol-2-yl)pyridin-3-yl)pyrazolo[1,5-a]pyrimidin-5-yl)-8-azabicyclo[3.2.1]octan-8-yl)-2-hydroxyethanone], the pIC50 in assay [1] (setting [6]) and in assay [2] (setting [6]) was 7.00 to 9.00 each time.

Consider `CC(=O)c1c([C@@H]2C[C@H]3CC[C@@H](C2)N3C(=O)c2nnc[nH]2)nc2c(-c3cnn(-c4ccccc4)c3)cnn2c1N` [Compound 1.1.143, 1-(5-((1R,3s,5S)-8-(4H-1,2,4-triazole-3-carbonyl)-8-azabicyclo[3.2.1]octan-3-yl)-7-amino-3-(1-phenyl-1H-pyrazol-4-yl)pyrazolo[1,5-a]pyrimidin-6-yl)ethanone], for which the pIC50 in assay [1] (setting [3]) and in assay [2] (setting [3]) was 7.00 to 9.00 throughout.
